According to patent US11518754B2, “Radiolabeled pharmaceuticals and methods of making and using same” (YALE UNIVERSITY, priority 2017, dated 2022):
Where two headings read alike, the source gives them in different places. Blank lines part the entries; values can stand above or below the compound they belong to.

Tests used:
[1] = target: SV2A (Macaca mulatta, UniProt H9EQH8); assay: PET imaging studies in rhesus monkeys; conditions: for blocking of radiotracer specific binding to SV2A: levetiracetam 30 mg/kg i.v. or UCB-J 150 μg/kg i.v. before radiotracer injection; for Binding potential (BPND): from VT, centrum semiovale as reference region; for Displacement of radiotracer binding by levetiracetam: levetiracetam 30 mg/kg i.v. infused 60 or 90 min post injection of the radiotracer; for time to SUV peak in gray matter regions: rhesus monkey, in vivo, iv
Experimental: Experiments were performed in rhesus monkeys (Macaca mulatta). Rhesus monkeys were sedated using intramuscular (i.m.) injection of ketamine and glycopyrrolate approximately 2 hours before the PET scan and anesthesia was maintained with isoflurane (1.5%-2.5%) for the duration of the experiments. Baseline PET scans were obtained after intravenous (i.v.) injection of ^11C-3, ^18F-3, ^18F-4, ^18F-5, ^18F-10, ^18F-11, or ^18F-12.
Arterial blood samples were collected during the PET scans to calculate the plasma input function and to determine the unmetabolized parent fraction using the automatic column-switching HPLC system. Plasma free fraction (fp) was measured in triplicate using the ultrafiltration method.
PET scans of the brain were acquired using the FOCUS 220 PET scanner (Siemens Preclinical Solutions) with a reconstructed image resolution of approximately 1.5 mm. After a transmission scan, the radioligand was injected i.v. as a 3 min slow bolus by an infusion pump (PHD 22/2000; Harvard Apparatus). List-mode data were acquired for 120-180 min and binned into sinograms with an applicable number of frames. Scan data were reconstructed with a Fourier rebinning/filtered backprojection algorithm with corrections for attenuation, scanner normalization, radiation scatter, and randoms. Regions of interest were manually delineated on a single representative anatomic rhesus monkey MR image registered to a template image. The regions used in this study were amygdala, brain stem, caudate, centrum semiovale, cerebellum, cingulate cortex, frontal cortex, globus pallidus, insular cortex, nucleus accumbens, occipital cortex, pons, putamen, temporal cortex, and thalamus. Registration parameters were obtained to apply the regions of interest to individual PET scans, and regional time-activity curves were generated. Regional time-activity curves of the brain were analyzed with the 1-tissue-(1T) compartment model. Fit quality was compared with the 2-tissue model and the multilinear analysis method to calculate VT.
Typical injected radioactivity amount was 0.5-5 mCi per injection, with typical injected mass amount of 1-10 μg.
Specific binding to SV2A was further examined for ^11C-3, ^18F-3, and ^18F-11 in blocking studies, where levetiracetam or UCB-J ((R)-3) was i.v. infused before injection of the radiotracers.

[2] = target: SV2A (Rattus norvegicus (Rat), UniProt Q02563)
Experimental: One Sprague Dawley rat was euthanized with carbon dioxide inhalation. The brain was harvested, rapidly frozen on dry ice and then stored at −80° C. The whole brain homogenates were obtained following published procedures. The final homogenate was suspended in 20 mM Tris-HCl buffer (pH 7.4) containing 250 mM of sucrose at a wet tissue concentration of 100 mg/mL and stored at −80° C. until use.
For competition binding experiments, 0.5 mg of the rat brain homogenates in 800 μL of binding buffer (2 mM MgCl2 in 50 mM Tris*HCl, pH=7.4) were incubated on a thermoshaker at 37° C. for 30 min with 100 μL (R)-^11C-3 or (R)-^18F-11 and 100 μL of the compound over a range of concentrations (from 0.1 to 100 nM). Nonspecific binding was defined as the residual binding observed in the presence of 1 mM levetiracetam (100 μL). At completion of the incubation period, the membrane-bound radioligand was recovered using rapid filtration through GF/B glass fiber filters (13 mm GD/X, Whatman Inc.) which were pre-soaked for at least 30 min in 0.5% polyethyleneimine (PEI). The membranes were washed twice with 1 mL of ice-cooled binding buffer. The binding mixtures, filters and filtrates were counted using cross-calibrated gamma counters (1480 & 2480 WIZARD; Perkin-Elmer). Values of IC50 were calculated using the [sequence] PRISM™ software and converted to inhibition constants (Ki) by the Cheng-Prusoff equation.

[3] = Plasma free fraction (fp) by ultrafiltration method; type: in vitro ADME, rhesus monkeys (Macaca mulatta); conditions: plasma (from arterial blood samples), rhesus monkey plasma
[4] = IC50, rat brain homogenates, radioligand (R)-11C-3 or (R)-18F-11, 37° C., 30 min
[5] = Ki, converted from IC50 by the Cheng-Prusoff equation
[6] = converted from IC50 by the Cheng-Prusoff equation
[7] = rat brain homogenates, radioligand (R)-11C-3 or (R)-18F-11, 37° C., 30 min

Sequence of SV2A (Rattus norvegicus (Rat), UniProt Q02563) (Q02563 whole entry): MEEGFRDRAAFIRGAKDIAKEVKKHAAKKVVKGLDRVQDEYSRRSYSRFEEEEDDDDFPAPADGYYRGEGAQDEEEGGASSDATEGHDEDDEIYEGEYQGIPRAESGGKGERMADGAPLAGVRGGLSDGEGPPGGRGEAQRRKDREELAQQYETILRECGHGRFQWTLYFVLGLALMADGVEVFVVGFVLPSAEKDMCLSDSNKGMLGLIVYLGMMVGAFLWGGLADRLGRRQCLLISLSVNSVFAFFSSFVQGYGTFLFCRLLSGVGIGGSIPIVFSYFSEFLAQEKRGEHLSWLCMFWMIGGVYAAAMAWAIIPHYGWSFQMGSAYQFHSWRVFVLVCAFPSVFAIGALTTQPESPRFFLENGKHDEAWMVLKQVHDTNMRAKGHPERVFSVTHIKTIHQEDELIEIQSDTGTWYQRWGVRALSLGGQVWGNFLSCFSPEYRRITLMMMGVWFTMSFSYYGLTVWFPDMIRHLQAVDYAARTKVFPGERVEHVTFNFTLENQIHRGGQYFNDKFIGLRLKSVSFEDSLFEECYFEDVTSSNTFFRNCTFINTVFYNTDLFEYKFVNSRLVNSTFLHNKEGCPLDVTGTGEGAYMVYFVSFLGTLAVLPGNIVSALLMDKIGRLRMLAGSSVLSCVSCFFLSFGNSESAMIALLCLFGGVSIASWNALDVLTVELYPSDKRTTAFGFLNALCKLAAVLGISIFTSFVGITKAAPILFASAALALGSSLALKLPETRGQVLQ
Sequence of SV2A (Macaca mulatta, UniProt H9EQH8) (H9EQH8 1-742): as the sequence (Q02563 whole entry) above, with E53D, A62S, G64S, A71T, D144E, T154A, S440G, A482S, L634M counted along it

Structure (SMILES): Cc1cnccc1CN1CC(c2cc(F)c(F)c(F)c2)CC1=O (single isomer, unassigned) [(R)-3, 1-((3-methylpyridin-4-yl)methyl)-4-(3,4,5-trifluorophenyl) pyrrolidin-2-one]
blocking of radiotracer specific binding to SV2A [1]: blocking of specific binding
IC50 [2, 4]: 1.62 nM
Ki [2, 5]: 0.27 nM

Structure (SMILES): Cc1cnccc1CN1CC(c2cccc(F)c2)CC1=O (single isomer, unassigned) [(R)-11, 4-(3-Fluorophenyl)-1-((3-methylpyridin-4-yl)methyl)pyrrolidin-2-one]
IC50 [2, 4]: 26.9 nM
Ki [2, 5]: 4.44 nM

Structure (SMILES): Cc1cnccc1CN1C[C@H](c2cc(F)c(F)c(F)c2)CC1=O (single isomer, unassigned) [(S)-3, 1-((3-methylpyridin-4-yl)methyl)-4-(3,4,5-trifluorophenyl) pyrrolidin-2-one]
Ki [2, 6]: 12.5 nM
IC50 [2, 7]: 75.6 nM

Structure (SMILES): Cc1cnccc1CN1C[C@H](c2ccc(F)c(F)c2)CC1=O (single isomer, unassigned) [(S)-4, 4-(3,4-difluorophenyl)-1-((3-methylpyridin-4-yl)methyl)pyrrolidin-2-one]
Ki [2, 6]: 9.43 nM
IC50 [2, 7]: 57 nM

Structure (SMILES): Cc1cnccc1CN1CC(c2cccc(F)c2)CC1=O (single isomer, unassigned) [(S)-11, 4-(3-Fluorophenyl)-1-((3-methylpyridin-4-yl)methyl)pyrrolidin-2-one]
IC50 [2, 4]: 109 nM
Ki [2, 5]: 18.2 nM

Structure (SMILES): Cc1cnccc1CN1CC(c2cc(F)c(F)c(F)c2)CC1=O (centres unmarked) [^18F-3, 1-((3-methylpyridin-4-yl)methyl)-4-(3,4,5-trifluorophenyl) pyrrolidin-2-one]
Binding potential (BPND) ([1]; Amygdala): 1.65 ± 1.04
Binding potential (BPND) ([1]; Brainstem): 0.84 ± 0.28
Binding potential (BPND) ([1]; Caudate nucleus): 2.54 ± 0.60
Binding potential (BPND) ([1]; Cerebellum): 1.88 ± 0.42
Binding potential (BPND) ([1]; Cingulate cortex): 4.04 ± 0.38
Binding potential (BPND) ([1]; Frontal cortex): 3.90 ± 0.54
Binding potential (BPND) ([1]; Globus pallidus): 1.08 ± 0.59
Binding potential (BPND) ([1]; Hippocampus): 1.99 ± 0.75
Binding potential (BPND) ([1]; Insular cortex): 3.51 ± 0.56
Binding potential (BPND) ([1]; Nucleus accumbens): 3.85 ± 0.57
Binding potential (BPND) ([1]; Occipital cortex): 3.35 ± 0.27
Binding potential (BPND) ([1]; Pons): 0.80 ± 0.26
Binding potential (BPND) ([1]; Putamen): 2.62 ± 0.46
Binding potential (BPND) ([1]; Temporal cortex): 3.14 ± 0.41
Binding potential (BPND) ([1]; Thalamus): 2.53 ± 1.18
Displacement of radiotracer binding by levetiracetam [1]: reduced the binding of these tracers to a significant extent
Uptake of radiotracer in blocking studies ([1]; levetiracetam (30 mg/kg) or UCB-J (150 μg/kg) i.v. 10 min before radiotracer injection): reduced to background levels
time to SUV peak in gray matter regions [1]: slower
fraction unbound [3]: 0.42 ± 0.06

Now from value to compound, other results behind:

IC50 [2]: 12.6 nM
Ki [2]: 2.08 nM
Structure (SMILES): Cc1cnccc1CN1CC(c2ccc(F)c(F)c2)CC1=O (single isomer, unassigned) [(R)-4, 4-(3,4-difluorophenyl)-1-((3-methylpyridin-4-yl)methyl)pyrrolidin-2-one]

Ki [2, 6]: 4.43 nM
IC50 [2, 7]: 26.8 nM
Structure (SMILES): O=C1C[C@H](c2cccc(F)c2)CN1Cc1ccncc1 (single isomer, unassigned) [(R)-12, 4-(3-Fluorophenyl)-1-(pyridin-4-ylmethyl)pyrrolidin-2-one]

Ki [2, 6]: 115 nM
IC50 [2, 7]: 698 nM
Structure (SMILES): Cc1cnccc1CN1C[C@H](c2cc(F)cc(F)c2)CC1=O (single isomer, unassigned) [(S)-5, 4-(3,5-Difluorophenyl)-1-((3-methylpyridin-4-yl)methyl)pyrrolidin-2-one]

IC50 [2]: 28.2 nM
Ki [2]: 4.66 nM
Structure (SMILES): O=C1CC(c2cccc(F)c2)CN1Cc1ccncc1 (single isomer, unassigned) [(S)-12, 4-(3-Fluorophenyl)-1-(pyridin-4-ylmethyl)pyrrolidin-2-one]

Ki [2, 6]: 0.58 nM
IC50 [2, 7]: 3.52 nM
Structure (SMILES): Cc1cnccc1CN1C[C@@H](c2cc(F)cc(F)c2)CC1=O (single isomer, unassigned) [Compound (R)-5, 4-(3,5-Difluorophenyl)-1-((3-methylpyridin-4-yl)methyl)pyrrolidin-2-one]

Binding potential (BPND) ([1]; Amygdala): 0.66
Binding potential (BPND) ([1]; Brainstem): 0.75
Binding potential (BPND) ([1]; Caudate nucleus): 1.72
Binding potential (BPND) ([1]; Cerebellum): 0.55
Binding potential (BPND) ([1]; Cingulate cortex): 2.60
Binding potential (BPND) ([1]; Frontal cortex): 2.51
Binding potential (BPND) ([1]; Globus pallidus): 0.95
Binding potential (BPND) ([1]; Hippocampus): 1.35
Binding potential (BPND) ([1]; Insular cortex): 2.41
Binding potential (BPND) ([1]; Nucleus accumbens): 2.47
Binding potential (BPND) ([1]; Occipital cortex): 2.30
Binding potential (BPND) ([1]; Pons): 0.73
Binding potential (BPND) ([1]; Putamen): 1.86
Binding potential (BPND) ([1]; Temporal cortex): 2.21
Binding potential (BPND) ([1]; Thalamus): 1.65
time to SUV peak in gray matter regions [1]: ≤ 10 min
fraction unbound [3]: 0.41
Structure (SMILES): Cc1cnccc1CN1CC(c2ccc(F)c(F)c2)CC1=O (centres unmarked) [^18F-4, 4-(3,4-difluorophenyl)-1-((3-methylpyridin-4-yl)methyl)pyrrolidin-2-one]
Displacement of radiotracer binding by levetiracetam [1]: reduced the binding of these tracers to a significant extent

Binding potential (BPND) ([1]; Amygdala): 0.04
Binding potential (BPND) ([1]; Brainstem): −0.06
Binding potential (BPND) ([1]; Caudate nucleus): 0.75
Binding potential (BPND) ([1]; Cerebellum): 0.25
Binding potential (BPND) ([1]; Cingulate cortex): 1.45
Binding potential (BPND) ([1]; Frontal cortex): 1.28
Binding potential (BPND) ([1]; Globus pallidus): 0.29
Binding potential (BPND) ([1]; Hippocampus): 0.44
Binding potential (BPND) ([1]; Insular cortex): 1.09
Binding potential (BPND) ([1]; Nucleus accumbens): 1.18
Binding potential (BPND) ([1]; Occipital cortex): 0.90
Binding potential (BPND) ([1]; Pons): −0.09
Binding potential (BPND) ([1]; Putamen): 0.86
Binding potential (BPND) ([1]; Temporal cortex): 0.95
Binding potential (BPND) ([1]; Thalamus): 0.42
time to SUV peak in gray matter regions [1]: ≤ 10 min
fraction unbound [3]: 0.61
Structure (SMILES): O=C1CC(c2cccc(F)c2)CN1Cc1ccncc1 (centres unmarked) [^18F-12, 4-(3-Fluorophenyl)-1-(pyridin-4-ylmethyl)pyrrolidin-2-one]
Displacement of radiotracer binding by levetiracetam [1]: reduced the binding of these tracers to a significant extent

blocking of radiotracer specific binding to SV2A [1]: blocking of specific binding
Structure (SMILES): CC[C@@H](C(N)=O)N1CCCC1=O [levetiracetam, reference compound]
